{"source": "patent US20230321054A1", "about": "“COMPOSITIONS AND METHODS FOR CANCER AND TUMOR TREATMENT” (Washington University, priority 2022, published 2023)", "key": {"[1]": {"test_system": "tumor-liver alanine cycle", "experiment": "[U-13C] glucose isotope tracing / LC/MS metabolomics in drug-treated BRAF/p53 zebrafish (tumor-liver alanine cycling)", "assay_type": "in vivo", "quoted_text": "For all isotope tracing experiments, zebrafish were fasted for 24 h to empty the digestive tract prior to labeling. […] During steady-state labeling experiments, zebrafish were allowed to swim freely in facility water containing the corresponding stable isotopes at the aforementioned concentrations, in addition to 2% penicillin/streptomycin (Life Technologies). For isotope tracing via intraperitoneal injection, zebrafish were injected using a previously described method. Briefly, anesthetized fish were quickly dried and weighed. Zebrafish were then placed into the trough of a wet precut sponge, with the abdomen facing up and gills secured in the trough. A 35G beveled needle and NanoFil 10 µL syringe (World Precision Instruments) was carefully inserted midline near the pelvic girdle, and a [U-^13C] glucose treatment solution (0.5 mg/g) was slowly dispensed. After injection, fish were placed in 28° C. facility water and monitored for recovery from anesthesia (typically 5-10 seconds). Throughout the experiment, each fish was kept in an individual tank to allow for tracking.\nTo extract metabolites from serum, samples were diluted 1:15 with methanol:acetonitrile:water (2:2:1) at -20° C., vortexed for 10 s, and incubated at -20° C. for 1 h. Following incubation, metabolite extracts were centrifuged at 20,000 g and 4° C. for 10 min, and the supernatant was transferred into an LC/MS vial for same-day analysis. To extract metabolites from zebrafish tissues, frozen samples were ground in 1.5 mL microcentrifuge tubes with a disposable pellet pestle (Fisherbrand). The pellet pestle was placed in liquid nitrogen prior to sample grinding, and the microcentrifuge tube (containing tissue) was submerged in liquid nitrogen for the entirety of tissue grinding. […] The powderized tissue was mixed with -20° C. methanol:acetonitrile:water (2:2:1) and subjected to two cycles of freezing in liquid nitrogen (1 min), thawing in 25° C. water (10 s), sonication (5 min), and vortexing (30 s). Samples were then incubated at -20° C. for 1 h. […]"}, "[2]": {"test_system": "melanoma tumors of BRAF/p53 zebrafish", "experiment": "Tumor size by digital calipers in melanoma-bearing BRAF/p53 zebrafish", "assay_type": "in vivo", "quoted_text": "Wild-type (WT) fish were inbred AB strain (sjA). p53-/- and transgenic mitfa-BRAFV600E¬ lines were crossed to produce melanoma-bearing fish (referred to as BRAF/p53), using a previously described method. All fish were reared according to standard laboratory procedures. Fish were kept in an indoor environment at a temperature of 28 ± 1° C. with a 14:10-h light:dark circadian cycle. Both female and male fish were used for experiments at random. Experiments were conducted with age-matched animals (i.e., within 2 weeks of age). To assay tumor growth, melanoma dimensions were measured by using digital calipers. Tumor size was approximated as the volume of a half ellipsoid, ⅔ πabc, where a, b, and c represent the radii of tumor length, width, and height respectively.\nVemurafenib was dissolved in DMSO, and vemurafenib solution or DMSO alone (vehicle) was delivered via intraperitoneal injection following a previously described protocol detailed above. Throughout the experiment, each fish was kept in an individual tank to allow for tracking. […]"}, "[3]": {"test_system": "alanine cycling in WT zebrafish", "experiment": "[U-13C] glucose isotope tracing in vemurafenib-treated WT zebrafish", "assay_type": "in vivo", "settings": "100 mg/kg/day, 4 consecutive days, vs vehicle", "method": "For all isotope tracing experiments, zebrafish were fasted for 24 h to empty the digestive tract prior to labeling. To determine the [U-^13C] glucose concentration for isotopic steady-state labeling, concentrations between 5 - 20 mM were tested. […] Similarly, concentrations between 1 - 10 mM of [U-^13C] glutamine were tested for steady-state labeling. […] For ^15N-BCAA labeling experiments, 2 mM each [^15N] leucine, [^15N] isoleucine, and [^15N] valine were concurrently supplemented to facility water. For ^13C-BCAA labeling experiments, 4 mM each of [U-^13C] leucine, [U-^13C] isoleucine, and [U-^13C] valine were concurrently supplemented to facility water. During steady-state labeling experiments, zebrafish were allowed to swim freely in facility water containing the corresponding stable isotopes at the aforementioned concentrations, in addition to 2% penicillin/streptomycin (Life Technologies). For isotope tracing via intraperitoneal injection, zebrafish were injected using a previously described method. Briefly, anesthetized fish were quickly dried and weighed. Zebrafish were then placed into the trough of a wet precut sponge, with the abdomen facing up and gills secured in the trough. […] After injection, fish were placed in 28° C. facility water and monitored for recovery from anesthesia (typically 5-10 seconds). […]"}, "[4]": {"settings": "humans, mice, and zebrafish; cited from earlier work"}, "[5]": {"test_system": "alanine aminotransferase (ALT)", "experiment": "[U-13C] BCAA labeling and metabolite pool sizes after ALT inhibition in BRAF/p53 zebrafish", "assay_type": "in vivo", "settings": "600 µM in water, 10 days, vs vehicle", "method": "For all isotope tracing experiments, zebrafish were fasted for 24 h to empty the digestive tract prior to labeling. To determine the [U-^13C] glucose concentration for isotopic steady-state labeling, concentrations between 5 - 20 mM were tested. […] Similarly, concentrations between 1 - 10 mM of [U-^13C] glutamine were tested for steady-state labeling. […] For ^15N-BCAA labeling experiments, 2 mM each [^15N] leucine, [^15N] isoleucine, and [^15N] valine were concurrently supplemented to facility water. For ^13C-BCAA labeling experiments, 4 mM each of [U-^13C] leucine, [U-^13C] isoleucine, and [U-^13C] valine were concurrently supplemented to facility water. During steady-state labeling experiments, zebrafish were allowed to swim freely in facility water containing the corresponding stable isotopes at the aforementioned concentrations, in addition to 2% penicillin/streptomycin (Life Technologies). For isotope tracing via intraperitoneal injection, zebrafish were injected using a previously described method. Briefly, anesthetized fish were quickly dried and weighed. Zebrafish were then placed into the trough of a wet precut sponge, with the abdomen facing up and gills secured in the trough. A 35G beveled needle and NanoFil 10 µL syringe (World Precision Instruments) was carefully inserted midline near the pelvic girdle, and a [U-^13C] glucose treatment solution (0.5 mg/g) was slowly dispensed. After injection, fish were placed in 28° C. facility water and monitored for recovery from anesthesia (typically 5-10 seconds). Throughout the experiment, each fish was kept in an individual tank to allow for tracking.\nTo extract metabolites from serum, samples were diluted 1:15 with methanol:acetonitrile:water (2:2:1) at -20° C., vortexed for 10 s, and incubated at -20° C. for 1 h. Following incubation, metabolite extracts were centrifuged at 20,000 g and 4° C. for 10 min, and the supernatant was transferred into an LC/MS vial for same-day analysis. To extract metabolites from zebrafish tissues, frozen samples were ground in 1.5 mL microcentrifuge tubes with a disposable pellet pestle (Fisherbrand). The pellet pestle was placed in liquid nitrogen prior to sample grinding, and the microcentrifuge tube (containing tissue) was submerged in liquid nitrogen for the entirety of tissue grinding. We note that microcentrifuge tubes were labeled and weighed prior to tissue harvest and then weighed again following tissue grinding. The powderized tissue was mixed with -20° C. methanol:acetonitrile:water (2:2:1) and subjected to two cycles of freezing in liquid nitrogen (1 min), thawing in 25° C. water (10 s), sonication (5 min), and vortexing (30 s). Samples were then incubated at -20° C. for 1 h. For every 1 mg of tissue wet weight, 40 µL of extraction solvent was added. Following protein precipitation, tissue extracts were centrifuged at 20,000 g and 4° C. for 10 min, and the supernatant was transferred into an LC/MS vial for same-day analysis.\nUltra-high performance LC (UHPLC)/MS was performed with a Thermo Scientific Vanquish Horizon UHPLC system interfaced with a Thermo Scientific Orbitrap ID-X Tribrid Mass Spectrometer (Waltham, MA). Hydrophilic interaction liquid chromatography (HILIC) was conducted with a SeQuant ZIC-pHILIC guard column (20 mm × 2.1 mm, 5 µm) connected to a SeQuant ZIC-pHILIC column (100 mm × 2.1 mm, 5 µm; EMD Millipore, Burlington, MA). Chromatographic solvents were adapted from a previously described work. […]"}, "[6]": {"settings": "50 µM in tank water, 6 days, vs DMSO"}}, "note": "Entries after “also recorded” stand apart in the source; their conditions may differ."}
{"smiles": "CCN(c1nc(N)c(C(=O)N=C(N)N)nc1Cl)C(C)C", "note": "[EIPA, 5-(N-ethyl-N-isopropyl)amiloride]", "values": [{"measurement": "alanine labeling in the tumor", "setting": "[1]; [6]", "result": "did not affect"}, {"measurement": "hepatic gluconeogenesis (M3 labeling of glucose in the liver and serum)", "setting": "[1]; [6]", "result": "did not affect"}]}
{"smiles": "CCCS(=O)(=O)Nc1ccc(F)c(C(=O)c2c[nH]c3ncc(-c4ccc(Cl)cc4)cc23)c1F", "note": "[vemurafenib]", "values": [{"measurement": "tumors reduced in size", "setting": "[2]; 100 mg/kg/day i.p., after 10 days", "result": "> 95", "unit": "%"}, {"measurement": "13C-labeling in metabolites from the circulation, liver, or muscle", "setting": "[3]", "result": "No differences; also recorded: does not lead to off-target metabolic effects"}, {"measurement": "toxicity and tolerability", "setting": "[4]", "result": "minimal toxicity and high tolerability"}, {"measurement": "reduction of M3 labeling of alanine in the tumor", "setting": "[1]; 100 mg/kg/day i.p., 4 days, vs vehicle, 10 mM [U-13C] glucose 24 h", "result": "~ 2 fold"}]}
{"smiles": "N[C@@H](CCl)C(=O)O", "note": "[β-chloroalanine, β-chloro-L-alanine]", "values": [{"measurement": "reduction in tumor size", "setting": "[2]; β-chloroalanine in water, 10 days", "result": 50, "unit": "%"}, {"measurement": "BCAAs in serum (pool size)", "setting": "[5]", "result": "accumulation"}, {"measurement": "BCAAs in tumor (pool size)", "setting": "[5]", "result": "accumulation"}, {"measurement": "contribution that [U-13C] BCAAs made to the TCA cycle in tumors", "setting": "[5]", "result": "significantly reduced"}, {"measurement": "levels of alanine in tumor, serum, and liver", "setting": "[5]", "result": "decreased"}, {"measurement": "levels of circulating glucose", "setting": "[5]", "result": "decreased"}]}
